Test systems include NCI-H23 lung; SF-268 CNS; HOP-62 NSCLC; MCF7 breast; SK-OV-3 ovarian; RPMI-8226 leukemia; OVCAR-3 ovarian; SNB-19 CNS; LOX IMVI melanoma; UACC-257 melanoma.
What all share (assay): NCI tumour cell line growth inhibition, 48 h

The source of these data is PubChem BioAssay (NCI).

Where “and” joins values, the source holds several entries; their conditions need not be identical. Equal values may be shown once.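 Protocol summary: plate cells (96-well), add compound at 5 concentrations, incubate 48 h, interpolate endpoints linearly. GI50 is the concentration that inhibits growth by half. TGI: concentration producing complete growth inhibition.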

Take `CC(C)NC[C@@H](C(=O)N1CCN(c2ncnc3c2[C@H](C)C[C@H]3O)CC1)c1ccc(Cl)cc1`: the GI50 in the experiment with NCI-H23 lung was > 10 µM and 31.2 µM; in the experiment on SF-268 CNS, > 10 µM and 28.7 µM; in the experiment on HOP-62 NSCLC, > 10 µM and 11.9 µM; with MCF7 breast, 1.6 µM and 1.74 µM; in the experiment on SK-OV-3 ovarian it was 0.596 µM and 0.783 µM; in the experiment on RPMI-8226 leukemia, > 10 µM and 38.1 µM. Besides, the GI50 is > 10 µM and 12.3 µM with OVCAR-3 ovarian; 1.64 µM and 1.38 µM in the experiment with SNB-19 CNS; > 10 µM and 66 µM with LOX IMVI melanoma; > 10 µM and 10.8 µM in the experiment on UACC-257 melanoma. Besides, the TGI in the experiment with NCI-H23 lung, in the experiment with SF-268 CNS, in the experiment on HOP-62 NSCLC, in the experiment on MCF7 breast, with SK-OV-3 ovarian and in the experiment with RPMI-8226 leukemia was > 100 µM each time. The TGI is > 100 µM in the experiment with OVCAR-3 ovarian; > 89.5 µM in the experiment on SNB-19 CNS; > 100 µM in the experiment on LOX IMVI melanoma; > 10 µM and 49.8 µM with UACC-257 melanoma.

Turning to `O=C(Cn1ccc(=O)[nH]c1=O)Nc1ccc(C(=O)O)c(O)c1`, the TGI in the experiment with NCI-H23 lung, in the experiment with SF-268 CNS, with HOP-62 NSCLC, in the experiment with MCF7 breast, with RPMI-8226 leukemia and in the experiment with OVCAR-3 ovarian was > 100 µM throughout. Further, the TGI in the experiment with SNB-19 CNS, in the experiment with LOX IMVI melanoma and in the experiment on UACC-257 melanoma was > 100 µM in each case.

As to `Nc1ccn(Cc2ccc(C34CC5CC(CC(C5)C3)C4)c(O)c2)c(=O)n1`, the GI50 was 54.5 µM with NCI-H23 lung; 67.1 µM with SF-268 CNS; 22.5 µM in the experiment on HOP-62 NSCLC; 91.5 µM with MCF7 breast; > 100 µM in the experiment on SK-OV-3 ovarian; > 100 µM with RPMI-8226 leukemia. Also, the GI50 in the experiment on OVCAR-3 ovarian is 58.9 µM; with SNB-19 CNS, 89.1 µM; in the experiment on LOX IMVI melanoma, > 100 µM. Besides, the TGI in the experiment on NCI-H23 lung was > 100 µM; in the experiment on SF-268 CNS, > 100 µM; in the experiment on HOP-62 NSCLC, 76.4 µM; with MCF7 breast, > 100 µM; in the experiment on SK-OV-3 ovarian it was > 100 µM; in the experiment with RPMI-8226 leukemia it was > 100 µM. Further, the TGI in the experiment with OVCAR-3 ovarian, in the experiment on SNB-19 CNS and in the experiment with LOX IMVI melanoma was > 100 µM in each case.

As for `Nc1c(C(=O)Nc2cccc([N+](=O)[O-])c2)sc2nc3c(cc12)C(O)CCC3` (stereo not given), the GI50 is > 100 µM in the experiment on NCI-H23 lung; 9.62 µM in the experiment on SF-268 CNS; 6.66 µM in the experiment with HOP-62 NSCLC; 3.14 µM with MCF7 breast; 10.2 µM in the experiment with SK-OV-3 ovarian; 4.53 µM in the experiment with OVCAR-3 ovarian. The GI50 was 18.7 µM in the experiment on SNB-19 CNS, 7.61 µM in the experiment on LOX IMVI melanoma and > 29.8 µM with UACC-257 melanoma. Also, the TGI with NCI-H23 lung was > 100 µM; with SF-268 CNS it was > 89.8 µM; in the experiment on HOP-62 NSCLC, > 100 µM; with MCF7 breast it was > 100 µM; with SK-OV-3 ovarian it was > 100 µM; in the experiment with OVCAR-3 ovarian it was > 100 µM. Moreover, the TGI with SNB-19 CNS, in the experiment on LOX IMVI melanoma and in the experiment on UACC-257 melanoma was > 100 µM throughout.

Regarding `COC(=O)[C@@H](C)C[C@H](Cc1ccccc1)NC(=O)c1nc([C@@H](C[C@H](C(C)C)N(C)C(=O)[C@@H](NC(=O)[C@H]2CCCCN2C)C(C)C)OC(C)=O)sc1C`, the GI50 in the experiment with NCI-H23 lung is 0.00302 µM; in the experiment on SF-268 CNS, 0.00472 µM; in the experiment on HOP-62 NSCLC, 0.00186 µM; in the experiment on MCF7 breast, < 0.00167 µM; in the experiment on SK-OV-3 ovarian, < 0.00167 µM; in the experiment with RPMI-8226 leukemia, < 0.00167 µM. For the same molecule, the GI50 in the experiment on OVCAR-3 ovarian, in the experiment with SNB-19 CNS and in the experiment with LOX IMVI melanoma was < 0.00167 µM throughout. Moreover, the TGI is > 16.7 µM in the experiment on NCI-H23 lung; > 16.7 µM with SF-268 CNS; > 16.7 µM with HOP-62 NSCLC; > 16.7 µM with MCF7 breast; > 16.7 µM in the experiment with SK-OV-3 ovarian; > 11.4 µM with RPMI-8226 leukemia. Also, the TGI in the experiment on SNB-19 CNS and with LOX IMVI melanoma was > 16.7 µM in each case.

With `CN(C)/C=C/c1nnc([N+](=O)[O-])s1`, the TGI was determined as 36.8 µM in the experiment on NCI-H23 lung; 42.1 µM with SF-268 CNS; 51.5 µM in the experiment on HOP-62 NSCLC; 8.01 µM in the experiment on MCF7 breast; 55.2 µM in the experiment with SK-OV-3 ovarian; 7.58 µM with OVCAR-3 ovarian. Besides, the TGI with SNB-19 CNS is 79.3 µM; in the experiment on LOX IMVI melanoma, 17.4 µM; in the experiment with UACC-257 melanoma it was 27.2 µM.

For the molecule `COc1ccc(-c2ccc(/C=N/n3c(COc4ccc(Cl)cc4Cl)n[nH]c3=S)o2)c([N+](=O)[O-])c1`, the GI50 in the experiment on NCI-H23 lung was 16.1 µM; in the experiment with SF-268 CNS, 23.1 µM; in the experiment on HOP-62 NSCLC it was 19.8 µM; in the experiment on MCF7 breast it was 15.9 µM; in the experiment on SK-OV-3 ovarian, 23.6 µM; in the experiment on RPMI-8226 leukemia, 11.7 µM. The GI50 was 16.1 µM with OVCAR-3 ovarian and 28.4 µM in the experiment with SNB-19 CNS. The TGI in the experiment on NCI-H23 lung is 33.2 µM; in the experiment on SF-268 CNS, 67.1 µM; with HOP-62 NSCLC, 35.7 µM; in the experiment with MCF7 breast it was 41.7 µM; in the experiment on SK-OV-3 ovarian it was > 100 µM; in the experiment on RPMI-8226 leukemia, 43.7 µM. Moreover, the TGI in the experiment on OVCAR-3 ovarian is 46.3 µM; in the experiment with SNB-19 CNS, > 100 µM.

In the case of `Cc1sc(C(=O)Nc2cc(C(=O)NCCCN(C)C)n(C)c2)cc1NC(=O)CCCN1C(=O)c2cccc3cccc(c23)C1=O`, the GI50 in the experiment on NCI-H23 lung, with SF-268 CNS, in the experiment on HOP-62 NSCLC, in the experiment on MCF7 breast, in the experiment with SK-OV-3 ovarian and with RPMI-8226 leukemia was > 100 µM throughout. Further, the GI50 in the experiment on OVCAR-3 ovarian, in the experiment with SNB-19 CNS and in the experiment with LOX IMVI melanoma was > 100 µM in each case. Moreover, the TGI in the experiment on NCI-H23 lung, in the experiment with SF-268 CNS, in the experiment with HOP-62 NSCLC, in the experiment with MCF7 breast, in the experiment with SK-OV-3 ovarian and in the experiment on RPMI-8226 leukemia was > 100 µM each time. The TGI in the experiment with OVCAR-3 ovarian, in the experiment on SNB-19 CNS and in the experiment on LOX IMVI melanoma was > 100 µM throughout.

Turning to `CCCN=Cc1cc(Cc2ccc(O)c(C=NCCC)c2)ccc1O`, the TGI is 26.2 µM in the experiment on NCI-H23 lung; 46.4 µM in the experiment on SF-268 CNS; > 100 µM in the experiment on HOP-62 NSCLC; 6.87 µM in the experiment with MCF7 breast; 82.4 µM with SK-OV-3 ovarian; 14.4 µM with OVCAR-3 ovarian. The TGI with SNB-19 CNS turned out to be 12.2 µM; in the experiment with LOX IMVI melanoma it was 13.4 µM; in the experiment on UACC-257 melanoma, 60.8 µM.

In the case of `COC(=O)CCC(NC(=S)N/N=C(\C)c1nccs1)C(=O)OC` (stereo not given), the TGI in the experiment on NCI-H23 lung, in the experiment with SF-268 CNS, with HOP-62 NSCLC, in the experiment on SK-OV-3 ovarian, in the experiment with RPMI-8226 leukemia and with OVCAR-3 ovarian was > 100 µM in each case. The TGI with SNB-19 CNS, in the experiment on LOX IMVI melanoma and in the experiment on UACC-257 melanoma was > 100 µM each time.

On to `NC(=S)N/N=C(/CC(=O)c1ccccc1)C(=O)Nc1ccc(Cl)c(Cl)c1`, for which the TGI in the experiment on NCI-H23 lung, with SF-268 CNS, in the experiment with HOP-62 NSCLC, in the experiment with SK-OV-3 ovarian, in the experiment on RPMI-8226 leukemia and in the experiment on OVCAR-3 ovarian was > 100 µM each time. The TGI with SNB-19 CNS, with LOX IMVI melanoma and in the experiment on UACC-257 melanoma was > 100 µM each time.

On to `Cc1[c-]onc1C.Cc1[c-]onc1C.[Ag].[Ag].[NH-]S(=O)(=O)c1ccc(N=Nc2cc(N=Nc3ccc(S([NH-])(=O)=O)cc3)c3c(NC(=O)C(Cl)Cl)cccc3c2OC(=O)C(Cl)Cl)cc1`, for which the GI50 was 8.3 µM in the experiment with NCI-H23 lung; 8.78 µM with SF-268 CNS; 16.8 µM in the experiment with HOP-62 NSCLC; 2.12 µM in the experiment on MCF7 breast; 9.66 µM with SK-OV-3 ovarian; 9.27 µM in the experiment with RPMI-8226 leukemia. Besides, the figures for the GI50 in the experiment with OVCAR-3 ovarian, in the experiment with SNB-19 CNS and in the experiment on LOX IMVI melanoma were 7.6 µM, 7.38 µM and 7.75 µM, respectively. Besides, the TGI in the experiment on NCI-H23 lung was 22.8 µM; in the experiment with SF-268 CNS, 28.1 µM; with HOP-62 NSCLC it was 38.9 µM; with MCF7 breast, > 50 µM; in the experiment with SK-OV-3 ovarian, 18.5 µM; in the experiment with RPMI-8226 leukemia, 27.2 µM. Further, the TGI in the experiment with OVCAR-3 ovarian worked out at 15.8 µM; in the experiment on SNB-19 CNS, 16.9 µM; in the experiment with LOX IMVI melanoma, 18.3 µM.

With `CC1=NCCc2c1[nH]c1cc(O)ccc21`, the TGI in the experiment with NCI-H23 lung, in the experiment with SF-268 CNS, in the experiment with HOP-62 NSCLC, in the experiment with SK-OV-3 ovarian, with RPMI-8226 leukemia and in the experiment with OVCAR-3 ovarian was > 100 µM in each case. For the same molecule, the TGI with SNB-19 CNS, with LOX IMVI melanoma and in the experiment with UACC-257 melanoma was > 100 µM each time.

Regarding `Nc1cc2cccc[n+]2c2cc(Cl)ccc12`, the GI50 was 13.2 µM in the experiment with NCI-H23 lung; 4.03 µM with SF-268 CNS; 17.9 µM with MCF7 breast; 2.86 µM in the experiment with RPMI-8226 leukemia; 9.23 µM in the experiment on SNB-19 CNS; 3.75 µM in the experiment on UACC-257 melanoma. In addition, the TGI in the experiment on NCI-H23 lung was 53.6 µM; in the experiment on SF-268 CNS it was 21.7 µM; with MCF7 breast, 63 µM; in the experiment with RPMI-8226 leukemia, 29.9 µM; in the experiment on SNB-19 CNS, 55.5 µM; in the experiment on UACC-257 melanoma, 20.2 µM.

On to `CC1(C)SC2C(NC(=O)C(N)c3ccccc3)C(=O)N2C1C(=O)O` (stereo not given), for which the TGI in the experiment on NCI-H23 lung, in the experiment with SF-268 CNS, with HOP-62 NSCLC, in the experiment on MCF7 breast, in the experiment on RPMI-8226 leukemia and in the experiment with OVCAR-3 ovarian was > 100 µM each time. The TGI with SNB-19 CNS, with LOX IMVI melanoma and in the experiment on UACC-257 melanoma was > 100 µM throughout.
